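Test compounds were applied to cells in 96-well plates for 48 hours at 5 doses. The concentration for 50% growth inhibition is given as GI50.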 Active and inactive are the calls of the source. No stated cut-off is given here; in the data, active = GI50 up to about 1.1 µM and inactive = higher.
How the values were obtained:
Assay in all cases: NCI-60 cell line screen, 48 h
786-0 = tested on: 786-0
A498 = tested on: A498
ACHN = tested on: ACHN
BT-549 = tested on: BT-549
COLO 205 = tested on: COLO 205
EKVX = tested on: EKVX
HT-29 = tested on: HT-29
Hs-578T = tested on: Hs-578T
LOX IMVI = tested on: LOX IMVI
MDA-MB-435 = tested on: MDA-MB-435
NCI-H522 = tested on: NCI-H522
OVCAR-3 = tested on: OVCAR-3
OVCAR-4 = tested on: OVCAR-4
RPMI-8226 = tested on: RPMI-8226
RXF 393 = tested on: RXF 393
SF-268 = tested on: SF-268
SK-MEL-28 = tested on: SK-MEL-28
SW-620 = tested on: SW-620
T47D = tested on: T47D
XF498 = tested on: XF498

| Compound | GI50 (786-0) | GI50 (A498) | GI50 (ACHN) | GI50 (BT-549) | GI50 (COLO 205) | GI50 (EKVX) | GI50 (HT-29) | GI50 (Hs-578T) | GI50 (LOX IMVI) | GI50 (MDA-MB-435) | GI50 (NCI-H522) | GI50 (OVCAR-3) | GI50 (OVCAR-4) | GI50 (RPMI-8226) | GI50 (RXF 393) | GI50 (SF-268) | GI50 (SK-MEL-28) | GI50 (SW-620) | GI50 (T47D) | GI50 (XF498) |
| --- | --- | --- | --- | --- | --- | --- | --- | --- | --- | --- | --- | --- | --- | --- | --- | --- | --- | --- | --- | --- |
| CC1=C(Br)C(=O)C(C)=C(Br)C1=O.Cc1c(O)c(Br)c(C)c(O)c1Br | 1.77 µM (inactive) | 15.3 µM (inactive) | 1.68 µM (inactive) | 5.33 µM (inactive) | 1.98 µM (inactive) | 1.85 µM (inactive) | 2.07 µM (inactive) | 5.92 µM (inactive) | 1.87 µM (inactive) | 1.89 µM (inactive) | 1.99 µM (inactive) | 1.83 µM (inactive) | 1.79 µM (inactive) | 2.27 µM (inactive) | 1.88 µM (inactive) | 4.17 µM (inactive) | 1.91 µM (inactive) | 1.97 µM (inactive) | 2.52 µM (inactive) |  |
| O=[N+]([O-])c1ccc(C2SCc3nc4ccccc4n32)cc1 (stereo unspecified) | > 100 µM (inactive) | 88.3 µM (inactive) | 47.8 µM (inactive) |  | > 100 µM (inactive) | 44.3 µM (inactive) | > 100 µM (inactive) |  | 74.1 µM (inactive) |  |  |  | 76.9 µM (inactive) |  | 36.7 µM (inactive) | > 100 µM (inactive) | > 100 µM (inactive) | > 100 µM (inactive) |  | 12.3 µM (inactive) |
| CC(C)N(C(=O)C12C3C4C1C1C4(C#N)C3C12C#N)C(C)C (stereo unspecified) | > 100 µM (inactive) | > 100 µM (inactive) | > 100 µM (inactive) |  | > 100 µM (inactive) | > 100 µM (inactive) | > 100 µM (inactive) |  |  |  |  | > 100 µM (inactive) | > 100 µM (inactive) | > 100 µM (inactive) | > 100 µM (inactive) | > 100 µM (inactive) | > 100 µM (inactive) | > 100 µM (inactive) |  | > 100 µM (inactive) |
| CC(=O)N/C(=C\c1ccccc1/C=C(\NC(C)=O)c1nc2cc(C)c(C)cc2[nH]1)c1nc2cc(C)c(C)cc2[nH]1 | 18.7 µM (inactive) | 42.4 µM (inactive) | 14.8 µM (inactive) |  | 19.5 µM (inactive) | 12.3 µM (inactive) | 34.8 µM (inactive) |  |  |  | 1.73 µM (inactive) | 3.73 µM (inactive) |  | 2.04 µM (inactive) |  | 24.1 µM (inactive) | 7.43 µM (inactive) | 31.1 µM (inactive) |  | 15.6 µM (inactive) |
| CCOC(=O)C1=C(C)N(NC(=O)OC)C2(N)N(NC(=O)OC)C(C)=C(C(=O)OCC)C12C#N (stereo unspecified) | > 100 µM (inactive) | > 100 µM (inactive) | > 100 µM (inactive) |  |  | > 100 µM (inactive) | > 100 µM (inactive) |  | > 100 µM (inactive) |  | > 100 µM (inactive) | > 100 µM (inactive) | > 100 µM (inactive) | > 100 µM (inactive) |  | > 100 µM (inactive) | > 100 µM (inactive) | > 100 µM (inactive) |  | > 100 µM (inactive) |
| C[C@H](NC(=O)OC1C2C=CC(O)C1CC2)c1ccccc1 (stereo partly specified) | 38.1 µM (inactive) | > 100 µM (inactive) | > 100 µM (inactive) |  | 40.9 µM (inactive) | > 100 µM (inactive) | > 10 µM (inactive) |  | > 100 µM (inactive) |  | > 100 µM (inactive) | > 100 µM (inactive) | > 100 µM (inactive) | 22.4 µM (inactive) | > 100 µM (inactive) | > 100 µM (inactive) | > 100 µM (inactive) |  |  | > 100 µM (inactive) |
| O=S(=O)(CC#CCS(=O)(=O)c1ccccc1)c1ccccc1 | 0.973 µM (active) | 16.1 µM (inactive) | 1.79 µM (inactive) | 3.13 µM (inactive) | 1.95 µM (inactive) | 5.09 µM (inactive) | 6.68 µM (inactive) | 5.14 µM (inactive) | 1.51 µM (inactive) | 1.72 µM (inactive) | 0.659 µM (active) | 1.55 µM (inactive) | 1.84 µM (inactive) | 1.23 µM (inactive) | 1.67 µM (inactive) | 4.35 µM (inactive) | 7.46 µM (inactive) | 0.891 µM (active) | 1.95 µM (inactive) |  |
| Cc1ccc(C2C(Cl)C(=O)N2n2cnc3ccccc3c2=O)cc1 (stereo unspecified) | > 100 µM (inactive) |  | > 100 µM (inactive) |  | > 100 µM (inactive) | 26.5 µM (inactive) | > 100 µM (inactive) |  | > 100 µM (inactive) |  | > 100 µM (inactive) | 81.1 µM (inactive) | 65.9 µM (inactive) | 37.3 µM (inactive) | > 100 µM (inactive) | > 100 µM (inactive) | > 100 µM (inactive) | > 100 µM (inactive) |  | > 100 µM (inactive) |
| O=NN(CCCl)C(=O)N[C@H]1CC[C@@H](CC(=O)O)CC1 |  | > 100 µM (inactive) |  |  | > 100 µM (inactive) | > 100 µM (inactive) | > 100 µM (inactive) |  | > 54.2 µM (inactive) |  | > 61.7 µM (inactive) | > 100 µM (inactive) | > 100 µM (inactive) | 35.2 µM (inactive) | > 100 µM (inactive) | 33 µM (inactive) | > 100 µM (inactive) | > 100 µM (inactive) |  | > 100 µM (inactive) |
